{"source": "patent US9671340B2", "about": "“Measurement method for determining an organ function” (SMARTDYELIVERY GMBH, priority 2010, dated 2017)", "key": {"[1]": {"experiment": "Water solubility of the dye", "format": "physicochemical"}, "[2]": {"experiment": "In vivo determination of kidney function, imaging of dye excretion via the kidneys", "design": "species or system WISTAR rats", "procedure": "(§1) Male WISTAR rats (12-16 weeks old, body mass 400±50 g; Harlan Laboratories, Horst, Netherlands) were used in this study. All tests were carried out in accordance with the German laws for the protection of animals and with the approval of the regional animal protection commission in Bad Langensalza, Thuringia, Germany. The body temperature was kept constant at 37° during the surgical preparation and the experimental tests, in each case using a warming plate and a heatable specimen stage of the microscope. All preparations were carried out under aseptic conditions.\nFurther experiments were carried out to ascertain kidney function using DY652 (data not shown here) and DY647.\nThe kidney tissue and the widely ramified kidney vascular system can be seen in the recorded images.\nFIG. 7: in vivo imaging of the excretion of DY647 via the kidneys."}, "[3]": {"conditions": "rat, in vivo", "procedure": "as §1\nA special model of polymicrobial sepsis with some modifications was used, which was originally described by Bauhofer (Bauhofer et al., 2004, 2006; Lorenz et al., 2004). With this model the sepsis is induced by peritoneal contamination and infection (PCI).\nA standardised human stool inoculum was used for the PCI. Immediately after collection, the stool sample was diluted 1:1 with pre-reduced thioglycolate-bouillion, containing 10% sterile barium sulphate and 10% glycerol, and was then homogenised under anaerobic conditions. Lastly, the stool samples were stored at −80° C. until use. Before the inoculation, the stool samples were diluted 1:4 in 0.9% NaCl. The inoculum was analysed microbiologically in order to establish the number of strains after storage. The rats were instrumented 24 h before the PCI and anaesthetised using Desflurane (Baxter, Munich, Germany) via a facemask. A jugular vein catheter (polyethylene, autoclave-sterilised, OD:1.0 mm, Portex, UK) was used for the fluid replacement and was tunneled subcutaneously as far as the approach to the nape of the neck. The catheter was mounted on a hinge-jointed retaining system, which enabled unrestricted movement in the cage after recovery from the anaesthetic.\nIn introductory studies, the dose of the inoculum was adapted such that a 100% mortality rate was achieved within 40 h. The animals were assigned randomly to the control group (sham) or the PCI group. With short ether anaesthesia, the inoculum was injected intraperitoneally into the pelvis region using a 21 G cannula. The animals in the control group (sham) received 0.9% NaCl in the same amount. After the procedure, both groups received fluid replacement (10 ml/kg/KG/h, Jonosteril®, Fresenius Kabi GmbH, Germany) as well as food and water ad libitum.\nThe plasma disappearance rate (PDR) and the bile excretion of the dyes DY635 (Dyomics, Jena, Germany) and indocyanine green as a comparative experiment (ICG; Pulsion, Munich, Germany) were determined in vivo.\nThe animals were anaesthetised 15 h after sepsis or induction of the control group.\nAn arterial catheter was used for haemodynamic monitoring. A midline and right subcostal laparotomy was performed and the ductus choledochus was provided with a polyethylene catheter (polyethylene, autoclave-sterilised, OD:1.0 mm, Portex, UK) for the collection of bile via a cannula. The wound was then closed using Mersilene 2-0 (Ethicon, Hamburg, Germany) and the anaesthetisation was maintained.\nThe dye was administered via a jugular vein catheter. The blood samples and bile samples were taken from the zero point and then every 15 min for a period of 60 min. Blood losses caused by these blood samples were adequately counter balanced by infusions. The haemodynamic monitoring was carried out continuously."}, "[4]": {"experiment": "In vivo determination of hepatocellular and canalicular transport by intravital epifluorescence microscopy of the liver", "design": "species or system WISTAR rats", "conditions": "periportal and perivenous areas, up to 35 min after application", "procedure": "Changes to the hepatocellular uptake and the canalicular elimination were measured 15 h after sepsis or induction of the control group by in vivo imaging of the exclusively hepatocytically eliminated dye indocyanine green (Pulsion, Munich, Germany) and of DY635 using an inverted epiflourescence microscope (AxioObserver® Z1; Zeiss, Jena, Germany), equipped with a computer-controlled, highly-precise scanning platform (Marzhäuser, Wetzlar, Germany).\n775 nm to 805 nm excitation and 845 nm to 855 nm emission bandpass filters were used to image the dye indocyanine green. […]\nIn order to locate 16 regions (regions of interest: ROI) for the in vivo imagings of the dye, the liver surface was rasterised; 8 pericentral and 8 periportal regions were established and the exact position thereof was determined on the computer-controlled scanning stage using AxioVision® software and stored so that the predefined ROI were accessible during future experiments. […]\nBefore the indocyanine green or DY635 was added, base line images of the defined ROI were recorded using the AxioVision® multi-channel module (×40/0.6 lens, 365 nm to 395 nm excitation and 445 nm to 450 nm emission bandpass filter and 775 nm to 805 nm excitation and 845 nm to 855 nm emission bandpass filter). […]"}, "[5]": {"tested_on": "cultivated hepatocytes", "experiment": "Cytotoxicity, survival of cultivated hepatocytes 24 h after addition of dye (MTT assay)", "format": "cell-based", "procedure": "FIG. 6: comparison of the cytotoxicity between ICG and DY635. In each case the survival of cultivated hepatocytes 24 h after addition of different concentration of the dyes is shown (MTT assay)."}, "[6]": {"conditions": "cited from earlier work"}, "[7]": {"conditions": "at clinically conventional dose; cited from earlier work"}}, "note": "Read-outs that look alike come from different tables or passages of the source.", "data": [{"smiles": "CCN1/C(=C/C=C/C=C/C2=[N+](CC)c3ccc(S(=O)(=O)O)cc3C2(C)C)C(C)(CCCC(=O)O)c2cc(S(=O)(=O)O)ccc21", "note": "(stereo not drawn) [DY647, 2-{(1E,3E)-5-(3-(3-carboxy-propyl)-1-ethyl-3-methyl-5-sulfo-1,3-dihydro-indol-(2E)-ylidene]-penta-1,3-dienyl)-1-ethyl-3,3-dimethyl-5-sulfo-3H-indolium]", "values": [{"measurement": "solubility in water", "setting": "[1]", "result": "water-soluble"}, {"measurement": "location of the dye in the kidneys", "setting": "[2]; 5 minutes after application", "result": "can be seen in the vascular system of the kidneys"}, {"measurement": "location of the dye in the kidneys", "setting": "[2]; after 90 minutes", "result": "has left the vascular system and can be seen in the kidney tubules"}, {"measurement": "detection of the dye in urine after application", "setting": "[2]; after application", "result": "detected in urine"}, {"measurement": "route of excretion", "setting": "[2]; in vivo measurements of the kidneys", "result": "excreted selectively via the kidneys"}]}, {"smiles": "CC(C)(C)c1cc(/C=C/C=C2/N(CCCCCC(=O)O)c3ccc(S(=O)(=O)O)cc3C2(C)C)c2cc3c4c(c2[o+]1)CCCN4CCC3", "note": "[DY635]", "values": [{"measurement": "plasma concentration of the dye immediately after application, septic vs control animals", "setting": "[3]; male, Wistar", "result": "Less DY635 in the plasma was traceable in the healthy animals than in the sick animals"}, {"measurement": "time to complete uptake of the dye into the hepatocytes", "setting": "[3]; male, Wistar", "result": "≤ 15", "unit": "min"}, {"measurement": "accumulation of the dye in healthy animals, compared with ICG", "setting": "[3]", "result": "accumulates much less considerably in healthy animals than ICG"}, {"measurement": "detection of the dye in the kidneys or in the urine", "setting": "[3]", "result": "could not be detected"}, {"measurement": "speed of canalicular excretion into the bile fluid, compared with ICG", "setting": "[3]", "result": "excreted more quickly"}, {"measurement": "decrease of specific fluorescence intensity (dye concentration) in the organ tissue, compared with ICG", "setting": "[4]", "result": "decreases much more sharply"}, {"measurement": "cytotoxicity in comparison with ICG", "setting": "[5]", "result": "very low cytotoxicity"}]}, {"smiles": "CC1(C)C(/C=C/C=C/C=C/C=C2\\N(CCCCS(=O)(=O)O)c3ccc4ccccc4c3C2(C)C)=[N+](CCCCS(=O)(=O)[O-])c2ccc3ccccc3c21", "note": "[ICG, indocyanine green]", "values": [{"measurement": "metabolism and extrahepatic elimination", "setting": "[6]; current state of knowledge", "result": "neither metabolised nor eliminated extrahepatically"}, {"measurement": "time until the dye appears unconjugated in the bile", "setting": "[6]; following intravenous injection (0.1-0.5 mg/kg KG)", "result": "approximately 8 min"}, {"measurement": "binding to plasma proteins", "setting": "[6]; following intravenous injection, within a short period of time", "result": "fully bonded to plasma proteins"}, {"measurement": "dye concentration in the bile after 60 minutes", "setting": "[3]", "result": "high ICG values could still be measured"}, {"measurement": "plasma concentration of the dye immediately after application, septic vs control animals", "setting": "[3]", "result": "Less ICG can be traced in the plasma of the septic animals"}, {"measurement": "toxicity", "setting": "[7]", "result": "negligible toxicity"}]}]}
